The values below come from US6355649B1, “Method of treating seborrhea with 5-α reductase inhibitors” (priority 1993, dated 2002).

The test system of series [1] is DHT content in scalp tissue. Briefly: DHT content in scalp tissue after oral finasteride in men with male pattern baldness. The series is classed as in vivo. To be noted: orally for 6 weeks, 0.2 mg/day, 1.0 mg/day and 5.0 mgs/day. As to the method: In another test, finasteride was orally administered for 6 weeks to men with male pattern baldness at doses of 0.2 mg/day, 1.0 mg/day and 5.0 mgs/day.

In series [2] the test system is hair growth (androgenic alopecia). Briefly: Macrophotography and global photography procedure for detection of hair growth. Type of series: in vivo, patients. Particulars: dosages below 5 mg/day per patient, for example 1 mg/day or 0.2 mg/day; "it can be shown". As to the method: Location: ID card Haircount target area
In these clinical photographs, the only variable allowed is the haircount. Film emulsion, lighting, framing, exposure, and reproduction ratios are held constant.
1. The haircount area on the patient is prepared as follows: A small (˜1 mm) dot tattoo is placed at the beginning of the study at the leading edge of the bald area directly anterior to the center of the vertex bald spot, using a commercial tattooing machine or manually (needle and ink). An area approximately one square inch in size, centered at the tattoo at the leading edge of the balding area, is clipped short (˜2 mm). Cut hairs are removed from the area to be photographed, using tape. Compressed air and/or ethanol wipes may also be used to facilitate removal of cut hairs.
2. […]
A trained technician places a transparency over the photographic print and, using a felt tip pen, places a black dot over each visible hair. The dot map transparency is then counted using image analysis with computer assistance.
Photographs are coded with a random number corresponding to study site, visit number and patient allocation number to insure blinding to time. At Month 6, baseline and Month 6 photographs are counted and data analyzed for interim analysis. At Month 12, baseline, Month 6 and Month 12 photographs are counted and data analyzed for the primary endpoint. […]

Series [3] can be described thus: Solubility of finasteride polymorphic crystal forms. The series is classed as physicochemical. Particulars: 25° C. The method, then: Finasteride Form I can be prepared by dissolving finasteride in glacial acetic acid (ca. 100 mg/ml) and adding water with stirring until the weight % of water equals or exceeds 84%. The resulting solid phase is collected by filtration and dried under vacuum and at about 50° C. […] The x-ray powder diffraction pattern is characterized by d-spacings of 6.44, 5.69, 5.36, 4.89, 4.55, 4.31, 3.85, 3.59 and 3.14. […] The solubilities in water and cyclohexane at 25° C. are 0.05+0.02 and 0.27+0.05 mg/gm respectively. In addition, Form I of finasteride can be prepared by recrystallization from dry (H2O<1 mg/ml) ethyl acetate and isopropyl acetate. The isolated solids are dried under vacuum at about 50° C. and have the same physical characterization data as given above.
Form II of finasteride can be prepared by dissolving finasteride in glacial acetic acid (ca. 100 mg/ml) and adding water with stirring until the weight % of water equals about 75% but not in excess of 80%. The resulting solid phase is collected by filtration and dried under vacuum and at about 100° C. […] The x-ray powder diffraction pattern is characterized by d-spacings of 14.09, 10.36, 7.92, 7.18, 6.40, 5.93, 5.66, 5.31, 4.68, 3.90, 3.60 and 3.25. […] The solubilities in water and cyclohexane at 25° C. are 0.16+0.02 and 0.42+0.05 mg/gm respectively. In addition, Form II of finasteride can be prepared by recrystallization from ethyl acetate containing between 2 to 30 mg/ml of water and isopropyl acetate containing between 2 to 15 mg/ml of water. The isolated solids are dried under vacuum at about 80° C. and have the same physical characterization data as given above. Form II can also be prepared by heating Form I up to about 150° C., holding for about one hour and cooling back to room temperature. The Form II prepared in this manner has the same physical characterization data as given above.

For the compound `CC(C)(C)NC(=O)[C@H]1CC[C@H]2[C@@H]3CC[C@H]4NC(=O)C=C[C@]4(C)[C@H]3CC[C@]12C` [finasteride, 17β-(N-tert-butylcarbamoyl)-4-aza-5α-androst-1-ene-3-one], in series [1], the “DHT content in scalp tissue” value is listed as “significant reduction”. Also, the “hair growth / treatment of androgenic alopecia” value in series [2] is “promote hair growth”.
Turning to `CC(C)(C)NC(=O)[C@H]1CCC2C3CCC4NC(=O)C=C[C@]4(C)C3CC[C@@]21C` (stereo partly drawn) [Form II, 17β-(N-tert-butylcarbamoyl)-4-aza-5α-androst-1-ene-3-one], in series [3], the solubility in cyclohexane came to 0.42 ± 0.05 mg/gm and the solubility in water was 0.16 ± 0.02 mg/gm.
Taken in the same sequence, the figures for `CC(C)(C)NC(=O)[C@H]1CCC2C3CCC4NC(=O)C=C[C@]4(C)C3CC[C@@]21C` (stereo partly drawn) [Form I, 17β-(N-tert-butylcarbamoyl)-4-aza-5α-androst-1-ene-3-one] were 0.27 ± 0.05 mg/gm and 0.05 ± 0.02 mg/gm.
